Patent publication US7842488B2, “Polynucleotides encoding a human 3-phosphoinositide- dependent protein kinase” (Medical Research Council, priority 1997, dated 2010)

Assays:
[1] = biological target: T1, GST-PDK1 (Homo sapiens, UniProt O15530); experiment: GST-PDK1 assay: activation and phosphorylation of GST-PKBα; assay type: biochemical; details: lipid 10 μM in PtdCho/PtdSer vesicles
T1 construct: Residues 52-556 of PDK1 were expressed in human embryonic kidney 293 cells; made in house; host or cells: human embryonic kidney 293 cells (pEBG2T)
T1 sequence (O15530 52-556): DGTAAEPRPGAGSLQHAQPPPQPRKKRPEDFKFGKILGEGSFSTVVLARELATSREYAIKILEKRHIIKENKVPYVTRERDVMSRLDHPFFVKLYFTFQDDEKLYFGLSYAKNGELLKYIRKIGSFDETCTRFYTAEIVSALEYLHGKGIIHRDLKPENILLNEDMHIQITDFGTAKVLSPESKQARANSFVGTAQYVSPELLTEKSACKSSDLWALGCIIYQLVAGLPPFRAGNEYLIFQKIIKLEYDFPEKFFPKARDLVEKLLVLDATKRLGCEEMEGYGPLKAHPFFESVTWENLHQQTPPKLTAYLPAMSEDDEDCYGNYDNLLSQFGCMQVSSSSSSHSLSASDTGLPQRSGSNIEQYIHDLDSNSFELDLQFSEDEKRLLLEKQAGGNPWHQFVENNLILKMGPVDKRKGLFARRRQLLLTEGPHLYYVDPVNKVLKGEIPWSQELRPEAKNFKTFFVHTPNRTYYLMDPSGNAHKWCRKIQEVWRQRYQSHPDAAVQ

[2] = biological target: T2, PDK1 (Homo sapiens, UniProt O15530); experiment: Direct binding of PtdIns(3,4,5)P3 to PDK1
T2 sequence (O15530 1-556): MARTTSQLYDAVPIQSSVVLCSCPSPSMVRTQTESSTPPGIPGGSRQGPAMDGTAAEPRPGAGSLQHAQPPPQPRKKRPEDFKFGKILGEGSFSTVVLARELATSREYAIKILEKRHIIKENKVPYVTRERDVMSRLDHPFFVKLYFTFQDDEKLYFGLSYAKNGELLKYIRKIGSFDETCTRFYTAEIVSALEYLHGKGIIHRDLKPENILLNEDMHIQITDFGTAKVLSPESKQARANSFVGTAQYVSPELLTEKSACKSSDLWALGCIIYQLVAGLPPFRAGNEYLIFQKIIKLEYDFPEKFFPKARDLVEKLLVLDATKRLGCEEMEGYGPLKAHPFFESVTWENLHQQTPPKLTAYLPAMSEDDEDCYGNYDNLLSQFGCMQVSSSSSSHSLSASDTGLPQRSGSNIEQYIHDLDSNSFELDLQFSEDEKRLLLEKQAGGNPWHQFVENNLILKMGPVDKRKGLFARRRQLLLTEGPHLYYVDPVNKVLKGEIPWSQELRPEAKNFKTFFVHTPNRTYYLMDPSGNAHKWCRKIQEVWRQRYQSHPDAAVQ

[3] = biological target: T3, GST-DSTPK61 (Drosophila melanogaster, UniProt Q9W0V1); experiment: GST-DSTPK61 assay: activation and phosphorylation of GST-PKBα; assay type: biochemical; details: lipid 10 μM in PtdCho/PtdSer vesicles
T3 construct: residues 1-752 of DSTPK61 in E. coli as fusion proteins; made in house; host or cells: E. coli (pGEX-3X)
Experimental: FIG. 12. […] In panels A and C, the assays were terminated by making the incubations 1% (by vol) in TRITON X-100™ (see Ref 21), and the increase in specific activity of GST-PKBα was determined. In panels B and D, the reactions were terminated by making the solutions 1% in SDS, the samples were subjected to SDS/polyacrylamide gel electrophoresis, and the phosphorylation was assessed by autoradiography of the Coomassie blue-stained band corresponding to GST-PKBα.
One unit of PDK1 activity was defined as that amount required to increase the basal activity of GST-PKBα by 1 unit of activity in one min.

[4] = system: PDK1; experiment: PDK1 assay: activation of GST-PKBα by purified PDK1 with phospholipid vesicles; assay type: biochemical, rabbit; details: lipid 10 μM in vesicles of 100 μM PtdCho, 100 μM PtdSer; 30 min at 30° C.
Summary of the method: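 Two-stage assay: GST-PKBα incubated with PDK1, MgATP and phospholipid vesicles to allow activation. Reactions run 10 min at 30 °C, stopped on p81 phosphocellulose paper and washed in phosphoric acid. Basal GST-PKBα activity measured without PDK1.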

T3 sequence (Q9W0V1 85-836 Q200H/Q201E/Q317A/G443R): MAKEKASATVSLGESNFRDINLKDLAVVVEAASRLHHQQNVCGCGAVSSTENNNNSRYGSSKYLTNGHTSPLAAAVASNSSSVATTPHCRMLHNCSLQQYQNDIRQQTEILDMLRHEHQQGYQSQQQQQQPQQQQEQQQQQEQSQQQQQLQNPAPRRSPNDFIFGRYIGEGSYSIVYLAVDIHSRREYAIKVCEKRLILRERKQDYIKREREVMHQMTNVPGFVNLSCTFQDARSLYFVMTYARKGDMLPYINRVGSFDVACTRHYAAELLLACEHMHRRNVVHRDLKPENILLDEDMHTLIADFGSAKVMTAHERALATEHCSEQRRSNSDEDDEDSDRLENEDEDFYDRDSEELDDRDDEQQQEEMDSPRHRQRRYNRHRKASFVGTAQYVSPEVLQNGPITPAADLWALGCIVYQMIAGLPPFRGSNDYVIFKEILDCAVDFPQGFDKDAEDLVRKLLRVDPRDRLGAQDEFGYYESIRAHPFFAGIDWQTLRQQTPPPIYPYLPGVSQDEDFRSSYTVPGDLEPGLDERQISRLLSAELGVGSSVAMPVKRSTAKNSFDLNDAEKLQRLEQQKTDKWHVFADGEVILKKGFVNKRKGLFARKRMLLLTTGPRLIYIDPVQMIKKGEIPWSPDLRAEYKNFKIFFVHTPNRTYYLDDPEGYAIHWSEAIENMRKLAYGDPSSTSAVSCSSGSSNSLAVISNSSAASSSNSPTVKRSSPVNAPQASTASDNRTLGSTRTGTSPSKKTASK

Phosphatidylinositol 3,4,5-tris phosphate [PtdIns(3,4,5)P3]
activation and phosphorylation of GST-PKBα by GST-PDK1 (in words) [1]: activated and phosphorylated GST-PKBα | binding to PDK1 (in words) [2]: bind PtdIns(3,4,5)P3 directly | activation and phosphorylation of GST-PKBα by GST-DSTPK61 (in words) [3]: activated and phosphorylated GST-PKBα | activation of PDK1 (in words) [4]: only active in the presence of low micromolar concentrations
